{"source": "patent US6440690B1", "about": "“Peptides for the activation of the immune system in humans and animals” (priority 1995, dated 2002)", "key": {"Leishmania major [1]": {"test_system": "Leishmania major", "assay": "Murine cutaneous leishmaniasis, drug administration to infected Balb/c mice (TABLE V)", "type": "in vivo", "from_the_text": "To investigate the peptide's efficacy in affecting leishmania parasites in vivo, murine cutaneous-leishmaniasis models were used in which mice inoculated with Leishmania major promastigotes were allowed to develop a characteristic cutaneous lesion that attained a mean diameter of […] at day 27 of inoculation. Frommel et al., 1988 , Infection and Immunity 56:843. Treatment consisted of 3 peptide injections at intervals of 5 days and was compared with the effect induced by sodium stibogluconate, the current anti-leishmaniasis drug of choice. After injections, samples drawn periodically from the lesion area were analyzed for assessment of parasites evolution.\nMethods: Female mice, 6 to 8 weeks old, were inoculated with Leishmania major promastigotes (1×10^6) at the proximal portion of the tail as described in Frommel et al., 1988, Infection and Immunity 56:843. […] Simultaneously, evolution of the cutaneous lesion was assessed by direct measurement of the necrotic zone of the lesion.\nMethods. Cytokine concentrations in serum of treated and untreated Balb/c mice were determined by enzyme-immunoassay (Kit Genzyme®) using murine anti-IFN-γ or anti-TNF-α monoclonal antibodies and the corresponding rabbit polyclonal antibodies conjugated to peroxidase, following the manufacturer instructions."}, "Leishmania major [2]": {"test_system": "Leishmania major", "assay": "Murine cutaneous leishmaniasis, SPYY i.v. in Balb/c mice", "type": "in vivo", "details": "same doses as SPYY, 6 mice"}, "Pseudonomas aeruginosa": {"test_system": "Pseudonomas aeruginosa", "details": "U.S. Pat. No. 5,221,664; cited from earlier work"}, "[3]": {"test_system": "pathogenic microorganisms including bacteria, yeasts, filamentous fungi and protozoa", "assay": "Antimicrobial activity on the spectrum of microorganisms of TABLE I", "type": "cell-based", "details": "same experimental conditions", "protocol": "Methods. […] Antimicrobial assays were performed as described in Mor and Nicolas, 1994, J. Biol. Chem. 269:1934-1939. The effect on leishmania was assessed after 1 hour peptide exposure by counting living cells following trypan blue […]. Promastigotes were cultured (1×10^5 cells/ml) at 26° C. […] Trop. Med. Parasitol. 78:423-425, and cultured (1×10^4 cells/ml) at 37° C. Reversibility of inhibition was assessed by incubating 0.5 ml suspension containing 1×10^6 cells/ml in culture media in presence of peptide concentration of 0.2 mg/ml. After various incubation periods, aliquots were centrifuged at 900 g, the pellet washed and reincubated for 24 hours in fresh culture medium.\nTo verify the reversibility of inhibition, treated suspensions were thoroughly washed at various periods and reincubated in fresh medium."}, "[4]": {"assay": "Dissipation of Diffusion Potential Assay (membrane permeation)", "details": "SUV pretreated with diS-C2-5 and valinomycin", "protocol": "Methods: Small unilamellar vesicles (SUV) were prepared by sonication of PC/PS (1:1 w/w) and cholesterol (10% by weight) as described in Shai et al., 1991, J. Biol. Chem. 266:22346-54. Membrane permeation was assessed using the diffusion potential assay. Sims et al., 1974, Biochemistry 13:3315-3330; Shai et al., 1991, J. Biol. Chem. 266:22346-54. […] Maximal activity of the peptides was plotted versus peptide/lipid molar ratio."}, "Leishmania": {"test_system": "Leishmania", "details": "300 mg/kg for 20-40 injections; cited from earlier work"}}, "note": "“Also recorded” adds a separate entry of the source. Ends that are not written are not given here."}
{"molecule": "O.O.O.O.O.O.O.O.O.O=C([O-])[C@@H]1[O][Sb]2([O-])([O][Sb]34([OH])[O][C@H]([C@H](O)CO)[C@H]([O]3)[C@H](C(=O)[O-])[O]4)[O][C@H]([C@H](O)CO)[C@@H]1[O]2.[Na+].[Na+].[Na+]", "note": "[NaSG, sodium stibogluconate]", "values": [{"measurement": "outcome of the cutaneous lesion / disease", "setting": "Leishmania major [1]; Balb/c, up to twelve weeks post inoculation and later", "value": "reduced; also recorded: complete healing or skin cicatrization were not observed"}, {"measurement": "reduction of number of parasites and lesion size", "setting": "Leishmania major [1]; mouse, in vivo", "value": "partially effective"}]}
{"molecule": "EEEKRENEDEEKQDDEQSEM [acidic peptide, helical acidic synthetic peptide, control]", "values": [{"measurement": "control peptide compared with physiological water control", "setting": "Leishmania major [2]", "value": "No significant differences"}]}
{"molecule": "Magainin II: magainin peptide", "values": [{"measurement": "MIC", "setting": "Pseudonomas aeruginosa", "value": 256, "unit": "µM"}]}
{"molecule": "NPY: human NPY, 36-residue peptide of the pancreatic peptide family", "values": [{"measurement": "antimicrobial potency compared with SPYY", "setting": "[3]", "value": "inhibitory activity at comparable concentrations"}]}
{"molecule": "PEEMNKYLTALRHYINLVTRQRY-NH2 [SPYY14-36]", "values": [{"measurement": "antimicrobial potency compared with SPYY", "setting": "[3]", "value": "comparable molar potency"}, {"measurement": "membrane permeation", "setting": "[4]", "value": "permeated phospholipid vesicles"}]}
{"molecule": "PYY: human PYY, 36-residue peptide of the pancreatic peptide family", "values": [{"measurement": "antimicrobial potency compared with SPYY", "setting": "[3]", "value": "inhibitory activity at comparable concentrations"}]}
{"molecule": "meglumine antimoniate [Glucantime]", "values": [{"measurement": "outcome of therapy", "setting": "Leishmania", "value": "does not cure the disease but only results in a transient reduction of the symptoms"}]}
